Patent US8802737B2, “Method for improving tetracycline-resistance of Acinetobacter baumannii” (priority 2011, dated 2014)
In brackets after ≈: the same amount, converted by molar mass.

Assays:
Type in all cases: cell-based, Acinetobacter baumannii
A. baumannii strain AB2 = experiment: MIC by broth micro-dilution, clinical strain AB2; conditions: for MIC: Acinetobacter baumannii, read-out: susceptibilities to antibiotics (MICs); for MIC, ginger compound only: strain AB2, 10^5 cfu/mL, no tetracycline
Text: (§1) Precisely, five strains of clinical A. baumannii, named AB1, AB2, AB4, AB5, AB6, are isolated from patients in Kaohsiung Medical University Hospital, 1600-bed tertiary referral medical center in Taiwan, wherein each of strains is from different clones by genotyping and collected from different samples, for example, sputum, wound pus, blood, pleural fluid, and bronchial washing. All of the five strains of A. baumannii are stored in trypticase soy broth (Difco Laboratories, Detroit, Mich.) with 20% glycerol at −80° C. until the following use.
(§2) Some of the antibiotics including ampicillin, cefazolin and cefmetazole have no MIC breakpoints according to CLSI.
(§3) In the present embodiment, 10^5 cfu/mL of each strain of A. baumannii are prepared, and the medication test of the present invention is carried out by respectively providing the medication of the present invention and the ginger compound only to each strain of A. baumannii. In this way, the antimicrobial activities of the medication of the present invention and of the ginger compound only are monitored and recorded respectively.

A. baumannii strain AB6 = experiment: MIC by broth micro-dilution, clinical strain AB6; conditions: for MIC: Acinetobacter baumannii, read-out: susceptibilities to antibiotics (MICs); for MIC, ginger compound only: strain AB6, 10^5 cfu/mL, no tetracycline
Text: as §1, §2, §3

A. baumannii strain AB1 = experiment: MIC by broth micro-dilution, clinical strain AB1; conditions: for MIC: Acinetobacter baumannii, read-out: susceptibilities to antibiotics (MICs); for MIC, ginger compound only: strain AB1, 10^5 cfu/mL, no tetracycline
Text: as §1, §2, §3

A. baumannii strain AB4 = experiment: MIC by broth micro-dilution, clinical strain AB4; conditions: for MIC: Acinetobacter baumannii, read-out: susceptibilities to antibiotics (MICs); for MIC, ginger compound only: strain AB4, 10^5 cfu/mL, no tetracycline
Text: as §1, §2, §3

A. baumannii strain AB5 = experiment: MIC by broth micro-dilution, clinical strain AB5; conditions: for MIC: Acinetobacter baumannii, read-out: susceptibilities to antibiotics (MICs); for MIC, ginger compound only: strain AB5, 10^5 cfu/mL, no tetracycline
Text: as §1, §2, §3

| Molecule | MIC (A. baumannii strain AB2; strain AB2, LB broth) [µg/mL] | MIC (A. baumannii strain AB6; strain AB6, LB broth) [µg/mL] | MIC (A. baumannii strain AB1; strain AB1, LB broth) [µg/mL] | MIC (A. baumannii strain AB4; strain AB4, LB broth) [µg/mL] | MIC (A. baumannii strain AB5; strain AB5, LB broth) [µg/mL] | further results |
| --- | --- | --- | --- | --- | --- | --- |
| Gentamicin |  |  |  |  |  | susceptibilities to antibiotics (MICs) (A. baumannii strain AB2; strain AB2, LB broth): ≧16 μg/ml; susceptibilities to antibiotics (MICs) (A. baumannii strain AB6; strain AB6, LB broth): ≧16 μg/ml; susceptibilities to antibiotics (MICs) (A. baumannii strain AB1; strain AB1, LB broth): ≧16 μg/ml; susceptibilities to antibiotics (MICs) (A. baumannii strain AB4; strain AB4, LB broth): ≧16 μg/ml; susceptibilities to antibiotics (MICs) (A. baumannii strain AB5; strain AB5, LB broth): ≧16 μg/ml |
| CCN1CCN(C(=O)N[C@@H](C(=O)N[C@@H]2C(=O)N3[C@@H]2SC(C)(C)[C@@H]3C(=O)O)c2ccccc2)C(=O)C1=O [Piperacillin] | ≥ 128 | ≥ 128 | ≥ 128 | ≥ 128 | ≥ 128 |  |
| CCCCCCCCC[C@H](O)CC(=O)CCc1ccc(O)c(OC)c1 [[10]-gingerol] |  |  |  |  |  | MIC, ginger compound only (A. baumannii strain AB2): 162.3 µM (≈ 56.9 µg/mL); MIC, ginger compound only (A. baumannii strain AB6): 198.1 µM (≈ 69.4 µg/mL); MIC, ginger compound only (A. baumannii strain AB1): 144.6 µM (≈ 50.7 µg/mL); MIC, ginger compound only (A. baumannii strain AB4): 196.0 µM (≈ 68.7 µg/mL); MIC, ginger compound only (A. baumannii strain AB5): 207.5 µM (≈ 72.7 µg/mL) |
| CCCCC[C@H](O)CC(=O)CCc1ccc(O)c(OC)c1 [[6]-gingerol] |  |  |  |  |  | MIC, ginger compound only (A. baumannii strain AB2): 226.8 µM (≈ 66.8 µg/mL); MIC, ginger compound only (A. baumannii strain AB6): 275.6 µM (≈ 81.1 µg/mL); MIC, ginger compound only (A. baumannii strain AB1): 226.4 µM (≈ 66.7 µg/mL); MIC, ginger compound only (A. baumannii strain AB4): 297.1 µM (≈ 87.5 µg/mL); MIC, ginger compound only (A. baumannii strain AB5): 277.3 µM (≈ 81.6 µg/mL) |
| CCCCCC(=O)CC(=O)/C=C/c1ccc(O)c(OC)c1 [[6]-dehydrogingerdione] |  |  |  |  |  | MIC, ginger compound only (A. baumannii strain AB2): 166.2 µM (≈ 48.3 µg/mL); MIC, ginger compound only (A. baumannii strain AB6): 207.1 µM (≈ 60.1 µg/mL); MIC, ginger compound only (A. baumannii strain AB1): 198.1 µM (≈ 57.5 µg/mL); MIC, ginger compound only (A. baumannii strain AB4): 137.6 µM (≈ 40 µg/mL); MIC, ginger compound only (A. baumannii strain AB5): 178.5 µM (≈ 51.8 µg/mL) |
| CC(C)(O/N=C(\C(=O)N[C@@H]1C(=O)N2C(C(=O)[O-])=C(C[n+]3ccccc3)CS[C@H]12)c1csc(N)n1)C(=O)O [Ceftazidime] | ≥ 64 | ≥ 64 | ≥ 64 | ≥ 64 | ≥ 64 |  |
| CC1(C)S[C@@H]2[C@H](NC(=O)[C@H](N)c3ccccc3)C(=O)N2[C@H]1C(=O)O [Ampicillin] | ≥ 512 | ≥ 512 | ≥ 512 | ≥ 512 | ≥ 512 |  |
| CO/N=C(\C(=O)N[C@@H]1C(=O)N2C(C(=O)[O-])=C(C[N+]3(C)CCCC3)CS[C@H]12)c1csc(N)n1 [Cefepime] | ≥ 64 | ≥ 64 | ≥ 64 | ≥ 64 | ≥ 64 |  |
| CN(C)[C@@H]1C(O)=C(C(N)=O)C(=O)[C@@]2(O)C(O)=C3C(=O)c4c(O)cccc4[C@@](C)(O)[C@H]3C[C@@H]12 [Tetracycline] | ≥ 512 | ≥ 512 | 32 (≈ 72 µM) | ≥ 512 | ≥ 512 |  |
| CO[C@@]1(NC(=O)CSCC#N)C(=O)N2C(C(=O)O)=C(CSc3nnnn3C)CS[C@@H]21 [Cefmetazole] | ≥ 64 | ≥ 64 | ≥ 64 | ≥ 64 | ≥ 64 |  |
| CO/N=C(\C(=O)N[C@@H]1C(=O)N2C(C(=O)O)=C(CSc3nc(=O)c(=O)[nH]n3C)CS[C@H]12)c1csc(N)n1 [Ceftriaxone] | ≥ 64 | ≥ 64 | ≥ 64 | ≥ 64 | ≥ 64 |  |
| CCCCC/C=C/C(=O)CCc1ccc(O)c(OC)c1 [[6]-shogaol] |  |  |  |  |  | MIC, ginger compound only (A. baumannii strain AB2): 274.0 µM (≈ 75.7 µg/mL); MIC, ginger compound only (A. baumannii strain AB6): 347.2 µM (≈ 96 µg/mL); MIC, ginger compound only (A. baumannii strain AB1): 208.1 µM (≈ 57.5 µg/mL); MIC, ginger compound only (A. baumannii strain AB4): 279.7 µM (≈ 77.3 µg/mL); MIC, ginger compound only (A. baumannii strain AB5): 261.3 µM (≈ 72.2 µg/mL) |
| Cc1nnc(SCC2=C(C(=O)O)N3C(=O)[C@@H](NC(=O)Cn4cnnn4)[C@H]3SC2)s1 [Cefazolin] | ≥ 64 | ≥ 64 | ≥ 64 | ≥ 64 | ≥ 64 |  |
| C[C@@H](O)[C@H]1C(=O)N2C(C(=O)O)=C(S[C@@H]3CN[C@H](C(=O)N(C)C)C3)[C@H](C)[C@H]12 [Meropenem] | ≥ 16 | ≥ 16 | ≥ 16 | ≥ 16 | ≥ 16 |  |
